Laboratory results reported in BindingDB's records for doi:10.1016/j.chembiol.2015.08.013 (Aston University, 2015).
pIC50: −log10 of the molar value.

Key:
Assay in all cases: TG Activity Assays
[1] = target: T1, Protein-glutamine gamma-glutamyltransferase 2 (Homo sapiens, UniProt P21980)
T1 sequence (P21980 whole entry): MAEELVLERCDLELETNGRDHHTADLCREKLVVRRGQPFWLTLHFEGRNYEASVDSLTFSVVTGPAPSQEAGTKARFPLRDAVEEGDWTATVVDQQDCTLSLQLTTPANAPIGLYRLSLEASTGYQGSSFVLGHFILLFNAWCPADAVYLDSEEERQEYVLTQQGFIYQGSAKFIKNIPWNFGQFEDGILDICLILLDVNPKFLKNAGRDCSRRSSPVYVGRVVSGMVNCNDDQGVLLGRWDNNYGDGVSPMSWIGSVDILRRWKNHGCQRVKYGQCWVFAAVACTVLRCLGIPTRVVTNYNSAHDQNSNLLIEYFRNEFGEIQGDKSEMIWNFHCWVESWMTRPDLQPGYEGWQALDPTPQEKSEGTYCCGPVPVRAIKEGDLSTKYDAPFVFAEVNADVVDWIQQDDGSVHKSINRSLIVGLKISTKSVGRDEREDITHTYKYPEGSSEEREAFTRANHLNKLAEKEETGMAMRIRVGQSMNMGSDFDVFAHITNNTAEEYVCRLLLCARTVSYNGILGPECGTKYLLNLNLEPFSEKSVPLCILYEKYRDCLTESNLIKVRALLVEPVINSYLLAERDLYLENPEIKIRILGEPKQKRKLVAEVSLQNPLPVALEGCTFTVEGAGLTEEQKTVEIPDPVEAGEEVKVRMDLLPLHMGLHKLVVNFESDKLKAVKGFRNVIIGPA
Method: (§1) The incorporated biotinylated peptides were measured using horseradish peroxidase-conjugated streptavidin and then measured using o-phenylenediamine dihydrochloride substrates. The absorbance was measured at 490 nm using a microplat

[2] = target: T2, Protein-glutamine gamma-glutamyltransferase E (Homo sapiens, UniProt Q08188)
T2 sequence (Q08188 whole entry): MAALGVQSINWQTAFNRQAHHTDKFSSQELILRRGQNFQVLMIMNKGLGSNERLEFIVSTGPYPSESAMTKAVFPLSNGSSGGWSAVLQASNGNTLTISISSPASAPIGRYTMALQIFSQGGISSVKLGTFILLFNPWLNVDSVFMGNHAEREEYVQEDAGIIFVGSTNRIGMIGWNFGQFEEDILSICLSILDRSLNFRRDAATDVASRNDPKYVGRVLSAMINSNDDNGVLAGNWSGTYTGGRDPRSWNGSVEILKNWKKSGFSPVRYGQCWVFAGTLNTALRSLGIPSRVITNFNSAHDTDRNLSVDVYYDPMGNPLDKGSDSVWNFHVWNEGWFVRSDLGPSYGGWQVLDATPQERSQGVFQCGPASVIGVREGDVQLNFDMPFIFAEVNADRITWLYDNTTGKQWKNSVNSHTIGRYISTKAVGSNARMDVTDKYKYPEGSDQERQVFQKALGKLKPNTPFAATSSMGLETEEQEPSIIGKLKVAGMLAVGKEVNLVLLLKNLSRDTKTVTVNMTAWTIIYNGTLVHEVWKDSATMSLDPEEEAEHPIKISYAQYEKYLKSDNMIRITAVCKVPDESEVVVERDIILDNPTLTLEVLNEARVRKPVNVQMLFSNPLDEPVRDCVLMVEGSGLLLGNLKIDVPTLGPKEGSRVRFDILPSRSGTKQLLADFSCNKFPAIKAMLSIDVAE
Method: as §1

[3] = target: T3, Protein-glutamine gamma-glutamyltransferase K (Homo sapiens, UniProt P22735)
T3 sequence (P22735 whole entry): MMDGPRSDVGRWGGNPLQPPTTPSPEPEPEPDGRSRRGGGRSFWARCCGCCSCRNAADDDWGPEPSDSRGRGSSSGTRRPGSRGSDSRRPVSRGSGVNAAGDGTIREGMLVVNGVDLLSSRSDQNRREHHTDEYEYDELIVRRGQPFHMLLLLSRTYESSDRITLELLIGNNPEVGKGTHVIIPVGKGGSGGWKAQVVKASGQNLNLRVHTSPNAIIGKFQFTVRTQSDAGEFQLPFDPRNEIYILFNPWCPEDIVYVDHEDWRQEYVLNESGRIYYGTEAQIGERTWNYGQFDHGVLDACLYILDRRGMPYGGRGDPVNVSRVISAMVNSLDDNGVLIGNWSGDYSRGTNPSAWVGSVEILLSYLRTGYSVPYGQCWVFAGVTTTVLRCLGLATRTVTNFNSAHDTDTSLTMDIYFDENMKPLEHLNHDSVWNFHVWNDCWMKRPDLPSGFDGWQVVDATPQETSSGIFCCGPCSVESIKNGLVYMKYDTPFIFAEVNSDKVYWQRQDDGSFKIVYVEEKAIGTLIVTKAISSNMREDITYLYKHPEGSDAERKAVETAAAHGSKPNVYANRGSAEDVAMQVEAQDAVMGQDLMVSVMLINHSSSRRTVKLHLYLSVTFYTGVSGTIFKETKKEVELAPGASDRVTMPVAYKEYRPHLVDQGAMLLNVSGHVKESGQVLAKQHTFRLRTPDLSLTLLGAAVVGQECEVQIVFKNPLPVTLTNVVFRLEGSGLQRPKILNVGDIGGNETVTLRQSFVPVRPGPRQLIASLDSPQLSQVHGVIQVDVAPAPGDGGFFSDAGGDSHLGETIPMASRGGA
Method: as §1

| SMILES | pIC50 [1] | pIC50 [2] | pIC50 [3] |
| --- | --- | --- | --- |
| O=C(CBr)NCC(=O)N1CCN(C(=O)OCC23CC4CC(CC(C4)C2)C3)CC1 [1-Adamantylmethyl 4-[2-[(2-bromoacetyl)amino]acetyl]piperazine-1-carboxylate (6f)] | 8.20 | – | – |
| C=CC(=O)NCC(=O)N1CCN(C(=O)OCCC23CC4CC(CC(C4)C2)C3)CC1 [2-(1-Adamantyl)ethyl 4-[2-(prop-2-enoylamino)acetyl]piperazine-1-carboxylate (3g)] | 6.05 | < 4.00 | < 4.00 |
| O=C(CBr)NCC(=O)N1CCN(C(=O)OCCC23CC4CC(CC(C4)C2)C3)CC1 [2-(1-Adamantyl)ethyl 4-[2-[(2-bromoacetyl)amino]acetyl]piperazine-1-carboxylate (6g)] | – | 4.30 | 5.52 |
| C=CC(=O)NCC(=O)N1CCN(C(=O)OCc2ccc3ccccc3c2)CC1 [2-Naphthylmethyl 4-[2-(prop-2-enoylamino)acetyl]piperazine-1-carboxylate (3c)] | 6.36 | < 4.00 | < 4.00 |
| O=C(CBr)NCC(=O)N1CCN(C(=O)OCc2ccc3ccccc3c2)CC1 [2-Naphthylmethyl 4-[2-[(2-bromoacetyl)amino]acetyl]piperazine-1-carboxylate (6c)] | 7.54 | – | – |
| C=CC(=O)NCC(=O)N1CCN(C(=O)OCc2ccc(C(=O)OC)cc2)CC1 [(4-Methoxycarbonylphenyl)methyl 4-[2-(prop-2-enoylamino)acetyl]piperazine-1-carboxylate (3b)] | 5.20 | – | – |
| COC(=O)c1ccc(COC(=O)N2CCN(C(=O)CNC(=O)CBr)CC2)cc1 [(4-Methoxycarbonylphenyl)methyl 4-[2-[(2-bromoacetyl)amino]acetyl]piperazine-1-carboxylate (6b)] | 8.68 | – | – |
| COC(=O)c1ccc2cc(COC(=O)N3CCN(C(=O)CNC(=O)CBr)CC3)ccc2c1 [(6-Methoxycarbonyl-2-naphthyl)methyl 4-[2-[(2-bromoacetyl)amino]acetyl]piperazine-1-carboxylate (6d)] | 7.82 | 4.19 | 5.30 |
| COC(=O)c1ccc2cc(COC(=O)N3CCN(C(=O)CNC(=O)CCl)CC3)ccc2c1 [(6-Methoxycarbonyl-2-naphthyl)methyl 4-[2-[(2-chloroacetyl)amino]acetyl]piperazine-1-carboxylate (6n)] | 8.18 | – | – |
| C=CC(=O)NCC(=O)N1CCN(C(=O)OCc2ccccc2)CC1 [Benzyl 4-[2-(prop-2-enoylamino)acetyl]piperazine-1-carboxylate (3a)] | 5.23 | – | – |
| C=CS(=O)(=O)NCC(=O)N1CCN(C(=O)OCc2ccccc2)CC1 [Benzyl 4-[2-(vinylsulfonylamino)acetyl]piperazine-1-carboxylate (2a)] | 5.76 | – | – |
| Cc1c(C)[n+](C)c(SCC(=O)NCC(=O)N2CCN(C(=O)OCc3ccccc3)CC2)n1C [Benzyl 4-[2-[[2-(1,3,4,5-tetramethylimidazol-1-ium-2-yl)sulfanylacetyl]amino]-acetyl]-piperazine-1-carboxylate bromide (1s)] | 4.00 | – | – |
| C[S+](C)CC(=O)NCC(=O)N1CCN(C(=O)OCc2ccc3ccccc3c2)CC1 [Dimethyl-[2-[[2-[4-(2-naphthylmethoxycarbonyl)piperazin-1-yl]-2-oxo-ethyl]amino]-2-oxo-ethyl]sulfonium bromide (1c)] | 5.97 | < 4.00 | < 4.00 |
| O=C(CBr)NCC(=O)N1CCN(C(=O)C23CC4CC(CC(C4)C2)C3)CC1 [N-[2-[4-(adamantane-1-carbonyl)piperazin-1-yl]-2-oxo-ethyl]-2-bromo-acetamide (6e)] | 8.41 | 4.15 | 6.00 |
| C[S+](C)CC(=O)NCC(=O)N1CCN(C(=O)OC(C)(C)C)CC1 [[2-[[2-(4-tert-Butoxycarbonylpiperazin-1-yl)-2-oxo-ethyl]amino]-2-oxo-ethyl]-dimethylsulfonium bromide (1m)] | 6.56 | < 4.00 | < 4.00 |

Further lines, results first:

| pIC50 [1] | pIC50 [2] | pIC50 [3] | SMILES |
| --- | --- | --- | --- |
| 8.06 | – | – | O=C(CCl)NCC(=O)N1CCN(C(=O)C23CC4CC(CC(C4)C2)C3)CC1 [N-[2-[4-(adamantane-1-carbonyl)piperazin-1-yl]-2-oxo-ethyl]-2-chloro-acetamide (6o)] |
| 6.06 | – | – | C=CS(=O)(=O)NCC(=O)N1CCN(C(=O)C23CC4CC(CC(C4)C2)C3)CC1 [N-[2-[4-(adamantane-1-carbonyl)piperazin-1-yl]-2-oxo-ethyl]ethenesulfonamide (2e)] |
| – | 4.70 | 4.60 | C=CC(=O)NCC(=O)N1CCN(S(=O)(=O)c2cccc3c(N(C)C)cccc23)CC1 [N-[2-[4-[[5-(dimethylamino)-1-naphthyl]sulfonyl]piperazin-1-yl]-2-oxo-ethyl]prop-2-enamide (3h)] |
| 5.85 | < 4.00 | < 4.00 | C[S+](C)CC(=O)NCC(=O)N1CCN(C(=O)OCc2ccccc2)CC1 [[2-[[2-(4-Benzyloxycarbonylpiperazin-1-yl)-2-oxo-ethyl]amino]-2-oxo-ethyl]-dimethylsulfonium bromide (1a)] |
| 5.50 | – | – | C[S+](C)CC(=O)NCC(=O)N1CCN(C(=O)OCCC23CC4CC(CC(C4)C2)C3)CC1 [[2-[[2-[4-[2-(1-Adamantyl)ethoxycarbonyl]piperazin-1-yl]-2-oxo-ethyl]amino]-2-oxo-ethyl]-dimethyl-sulfonium bromide (1g)] |
| 5.48 | < 4.00 | < 4.00 | COC(=O)c1ccc(COC(=O)N2CCN(C(=O)CNC(=O)C[S+](C)C)CC2)cc1 [[2-[[2-[4-[(4-Methoxycarbonylphenyl)methoxycarbonyl]piperazin-1-yl]-2-oxo-ethyl]-amino]-2-oxo-ethyl]-dimethyl-sulfonium bromide (1b)] |
